Patent US8129538B1, “Renin inhibitors” (Takeda Pharmaceutical Company Limited, priority 2007, dated 2012)

These compounds were tested against T1, Recombinant human renin (Homo sapiens, UniProt P00797) (assay: In vitro enzymatic activity assay of renin inhibitors (fluorogenic peptide substrate)). Conditions: recombinant human renin 3 nM, substrate 1 μM, 37° C., pH 7.4, fluorescence; read-out: IC50 of Exemplified Compounds Against Renin.
T1 construct: isolate the active form (residues 67-406); made in house
T1 sequence (P00797 67-406): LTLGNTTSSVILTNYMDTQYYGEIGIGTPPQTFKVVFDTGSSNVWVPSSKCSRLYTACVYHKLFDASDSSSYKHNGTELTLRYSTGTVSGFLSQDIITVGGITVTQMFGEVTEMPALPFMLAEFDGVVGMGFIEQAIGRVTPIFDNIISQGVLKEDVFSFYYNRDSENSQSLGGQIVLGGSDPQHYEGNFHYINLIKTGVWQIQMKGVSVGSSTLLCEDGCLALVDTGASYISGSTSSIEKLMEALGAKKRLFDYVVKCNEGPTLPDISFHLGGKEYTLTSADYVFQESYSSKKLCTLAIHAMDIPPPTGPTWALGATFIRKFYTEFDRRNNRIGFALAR
Assay type: biochemical
Text: Test compounds in varying concentrations may be reacted with recombinant human renin in the presence of substrate, e.g., QXL520-γ-Abu-Ile-His-Pro-Phe-His-Leu-Val-Ile-His-Thr-Lys (HiLyteFluo488)-Arg-OH (Anaspec, San Jose, Calif.). The reaction can be followed kinetically using fluorescence (excitation λ=485 nm; emission λ=538 nm) Inhibition constants (IC50) may be calculated by non-linear curve fitting of the compound concentrations and fluorescence intensities to the standard IC50 equation.
Solutions of test compounds in varying concentrations (≦2 mM final concentration) are prepared in dimethyl sulfoxide (DMSO) and then diluted into assay buffer comprising 50 mM Hepes, 1 mM EDTA, 1 mM DTT, 0.1 mg/mL BSA, 0.01% Brij35, pH 7.4. Alternatively, the assay can be performed with a high BSA concentration, wherein the buffer contains an additional 2% BSA.
Recombinant human renin (3 nM final concentration) is added to the dilutions and pre-incubated with the compounds for 10 minutes at 37° C. As described in Examples A-C above, human renin can be obtained by expressing preprorenin (residue 1-406) in mammalian cells, treating the prorenin (residues 24-406) contained in the culture supernatant with trypsin, and isolate the active form (residues 67-406). After pre-incubation, the reaction is initiated with 1 μM of substrate QXL520-γ-Abu-Ile-His-Pro-Phe-His-Leu-Val-Ile-His-Thr-Lys (HiLyteFluo488)-Arg-OH (Anaspec, San Jose, Calif.). The final DMSO in the assay is 5%. The total volume of the reaction mixture is 20 μL, which can be placed on Greiner 384-well small volume plates.
Renin activity may be determined via fluorescence (excitation λ=485 nm; emission λ=538 nm), e.g., on a Molecular Devices SPECTROmax GEMINI XPS. The fluorescence
intensity is determined upon the addition of substrate and determined again after incubation at 37° C. for one hour. The fluorescence intensity of a blank (no inhibition) using vehicle alone is also determined. Renin activity is linearly proportional to the change in fluorescence observed (final-initial).
The percent inhibition of renin at a given compound concentration is defined as: 100%×[1−(Fcompound/Fblank)] where Fcompound is the observed fluorescence at a given concentration of test compound and Fblank is the observed fluorescence in the presence of vehicle alone.
The pIC50 value (negative log of the molar concentration of the compound that produces 50% inhibition) of a test compound is calculated by non-linear least squares curve fitting of the equation: Percent Inhibition=100%/(1+(10−pIC50/10 log [I])) to percent inhibition versus compound concentration. The 50% inhibitory concentration (IC50) of a test compound is calculated by raising 10 to the negative pIC50 (10-pIC50).

IC50 [nM] | SMILES
< 100 | COCOC[C@H]1NCCC(c2ccc(OCCOc3c(C)cccc3C)cc2)=C1C(=O)N(Cc1cccc(Cl)c1Cl)C1CC1 [Compound 8, (S)-N-cyclopropyl-N-(2,3-dichlorobenzyl)-4-(4-(2-(2,6-dimethylphenoxy)ethoxy)phenyl)-2-((methoxymethoxy)methyl)-1,2,5,6-tetrahydropyridine-3-carboxamide]
< 100 | Cc1cc(Cl)c(OCCOc2ccc(C3=C(C(=O)N(Cc4cccc(Cl)c4Cl)C4CC4)[C@@H](CO)NCC3)cc2)c(Cl)c1 [Compound 9, (S)-N-cyclopropyl-4-(4-(2-(2,6-dichloro-4-methylphenoxy)ethoxy)phenyl)-N-(2,3-dichlorobenzyl)-2-(hydroxymethyl)-1,2,5,6-tetrahydropyridine-3-carboxamide]
< 100 | COCOC[C@H]1NCCC(c2ccc(OCCOc3c(Cl)cc(C)cc3Cl)cc2)=C1C(=O)N(Cc1cccc(Cl)c1Cl)C1CC1 [Compound 10, (S)-N-cyclopropyl-4-(4-(2-(2,6-dichloro-4-methylphenoxy)ethoxy)phenyl)-N-(2,3-dichlorobenzyl)-2-((methoxymethoxy)methyl)-1,2,5,6-tetrahydropyridine-3-carboxamide]
< 100 | O=C(C1=C(c2ccc(OCCOc3c(F)ccc(F)c3Cl)cc2)CCN[C@@H]1CO)N(Cc1cccc(Cl)c1Cl)C1CC1 [Compound 11, (S)-4-(4-(2-(2-chloro-3,6-difluorophenoxy)ethoxy)phenyl)-N-cyclopropyl-N-(2,3-dichlorobenzyl)-2-(hydroxymethyl)-1,2,5,6-tetrahydropyridine-3-carboxamide]
> 1000 | O=C(C1=C(c2ccc(O)cc2)CCN[C@@H]1CO)N(Cc1cccc(Cl)c1Cl)C1CC1 [Compound 12, (S)-N-cyclopropyl-N-(2,3-dichlorobenzyl)-2-(hydroxymethyl)-4-(4-hydroxyphenyl)-1,2,5,6-tetrahydropyridine-3-carboxamide]
> 1000 | COc1ccc(C2=C(C(=O)N(Cc3cccc(Cl)c3Cl)C3CC3)[C@@H](CO)NCC2)cc1 [Compound 13, (S)-N-cyclopropyl-N-(2,3-dichlorobenzyl)-2-(hydroxymethyl)-4-(4-methoxyphenyl)-1,2,5,6-tetrahydropyridine-3-carboxamide]
100 to 1000 | NC[C@H]1NCCC(c2ccc(OCCOc3c(Cl)cccc3Cl)cc2)=C1C(=O)N(Cc1cccc(Cl)c1Cl)C1CC1 [Compound 14, (S)-2-(aminomethyl)-N-cyclopropyl-N-(2,3-dichlorobenzyl)-4-(4-(2-(2,6-dichlorophenoxy)ethoxy)phenyl)-1,2,5,6-tetrahydropyridine-3-carboxamide]

Second part, the compound before the results:

SMILES | IC50 [nM]
O=C(C1=C(c2cccc(-c3ccccc3)c2)CCNC1CO)N(Cc1cccc(Cl)c1Cl)C1CC1 (stereo not shown) [Compound 1, 4-(biphenyl-3-yl)-N-cyclopropyl-N-(2,3-dichlorobenzyl)-2-(hydroxymethyl)-1,2,5,6-tetrahydropyridine-3-carboxamide] | > 1000
O=C(C1=C(c2ccc(OCCOc3ccccc3Cl)cc2)CCNC1CO)N(Cc1cccc(Cl)c1Cl)C1CC1 (stereo not shown) [Compound 2, 4-(4-(2-(2-chlorophenoxy)ethoxy)phenyl)-N-cyclopropyl-N-(2,3-dichlorobenzyl)-2-(hydroxymethyl)-1,2,5,6-tetrahydropyridine-3-carboxamide] | > 1000
COCOC[C@H]1NCCC(c2cccc(-c3ccccc3)c2)=C1C(=O)N(Cc1cccc(Cl)c1Cl)C1CC1 [Compound 4, (S)-4-(biphenyl-3-yl)-N-cyclopropyl-N-(2,3-dichlorobenzyl)-2-((methoxymethoxy)methyl)-1,2,5,6-tetrahydropyridine-3-carboxamide] | 100 to 1000
COCOC[C@H]1NCCC(c2ccc(OCCOc3c(Cl)cccc3Cl)cc2)=C1C(=O)N(Cc1cccc(Cl)c1Cl)C1CC1 [Compound 5, (S)-N-cyclopropyl-N-(2,3-dichlorobenzyl)-4-(4-(2-(2,6-dichlorophenoxy)ethoxy)phenyl)-2-((methoxymethoxy)methyl)-1,2,5,6-tetrahydropyridine-3-carboxamide] | < 100
O=C(C1=C(c2ccc(OCCOc3c(Cl)cccc3Cl)cc2)CCN[C@@H]1CO)N(Cc1cccc(Cl)c1Cl)C1CC1 [Compound 6, (S)-N-cyclopropyl-N-(2,3-dichlorobenzyl)-4-(4-(2-(2,6-dichlorophenoxy)ethoxy)phenyl)-2-(hydroxymethyl)-1,2,5,6-tetrahydropyridine-3-carboxamide] | < 100
Cc1cccc(C)c1OCCOc1ccc(C2=C(C(=O)N(Cc3cccc(Cl)c3Cl)C3CC3)[C@@H](CO)NCC2)cc1 [Compound 7, (S)-N-cyclopropyl-N-(2,3-dichlorobenzyl)-4-(4-(2-(2,6-dimethylphenoxy)ethoxy)phenyl)-2-(hydroxymethyl)-1,2,5,6-tetrahydropyridine-3-carboxamide] | < 100
